Read-outs that look alike come from different tables or passages of the source.
Tests used:
K562 cells = assay type: cell-based; settings: 72 h incubation; mean ± SD of two or three independent experiments; read-out: metabolic activity IC50, K562
[1] = test system: K562-R cells (Doxorubicin-resistant subclone); assay type: cell-based; settings: 72 h incubation; mean ± SD of two or three independent experiments; read-out: metabolic activity IC50, K562-R
MCF-7 cells = assay type: cell-based, human; settings: 72 h incubation; mean ± SD of two or three independent experiments; read-out: metabolic activity IC50, MCF-7
A549 cells = assay type: cell-based; settings: 72 h incubation; mean ± SD of two or three independent experiments; read-out: metabolic activity IC50, A549
[2] = test system: A549-R cells (Taxol/Paclitaxel-resistant subclone); assay type: cell-based; settings: 72 h incubation; mean ± SD of two or three independent experiments; read-out: metabolic activity IC50, A549-R
[3] = test system: MCF-7TamR cells (Tamoxifen-resistant subline); assay type: cell-based, human; settings: 72 h incubation; mean ± SD of two or three independent experiments; read-out: metabolic activity IC50, MCF-7TamR
IGROV1 cells = assay type: cell-based; settings: 72 h incubation; mean ± SD of two or three independent experiments; read-out: metabolic activity IC50, IGROV1
A2780 cells = assay type: cell-based, human
IGROV1-CSC cells = assay type: cell-based; settings: 72 h incubation; mean ± SD of two or three independent experiments; read-out: metabolic activity IC50, IGROV1-CSC
[4] = test system: A2780cis cells (Cisplatin-resistant); assay type: cell-based, human; settings: 72 h incubation; mean ± SD of two or three independent experiments; read-out: metabolic activity IC50, A2780cis
[5] = HPLC degradation study in ACN/RPMI 1640 cell culture medium; settings: for conversion to 5: ACN/RPMI 1640 50/50 (without FCS)
[6] = HPLC reactivity study in chloride containing ACN/water; assay type: physicochemical; settings: for formation of 8 / conversion to 5: t0h (1.5 min); for conversion to 5: ACN/water 50/50, 6.0 g/L NaCl + 0.4 g/L KCl, 0.5 mM complex, rt
[7] = test system: SV-80 lung fibroblast cells; assay: Modified MTT assay in noncancerous cells; assay type: cell-based
[8] = HPLC reactivity study with GSH in ACN/water; assay type: physicochemical; settings: 20 equiv GSH; for substitution to (NHC)Au(I)-GSH adduct 12: t0h (1.5 min)
Procedure: (§1) All nucleophiles (chloride, amino acids, and GSH) were separately reacted with 5–11 in ACN/water = 50/50 (v/v) mixtures at a complex concentration 0.5 mM. This solvent composition was chosen to prevent precipitation of the complex and the formed degradation products.
(§2) Amino acids, as well as GSH, were used in 20-fold excess, as realized at a complex concentration of 10 μM in the cell culture medium. Thereto, the respective complex, dissolved in ACN (1 mM), was combined with the same amount of aqueous solution of the nucleophile (20 mM).
(§3) The mixture was then incubated for 24 h at rt and monitored at various time points via HPLC using an RP-C18 column and gradient elution (70/30 (v/v) to 90/10 (v/v)) of ACN/water (0.1% trifluoroacetic acid (TFA)).
(§4) Experiments in ACN/water: 1.0 mM solutions of the respective complex were prepared in ACN and diluted with HPLC-grade water (50/50, (v/v)) containing the double-concentrated amount of respective amino acid (20 mM), GSH (20 mM), sodium ascorbate (20 mM), or NADPH (20 mM). As a chloride source, an aqueous solution of KCl 0.8 g/L and NaCl 12 g/L was used. In each case, a final complex concentration of 0.5 mM was achieved. The solutions were incubated for 24 h at rt. For the experiments with RPMI 1640, the aqueous phase was replaced by a cell culture medium.
(§5) Samples (20 μL each) were taken at appropriate time points (t = 0 (1.5 min), 0.5, 1, 1.5, 2, 8, 12, and 24 h) and analyzed with a Shimadzu prominence HPLC system. The mobile phase consisted of ACN (HPLC-grade) and water (HPLC-grade) with 0.1% TFA. To achieve a separation of the compounds, gradient elution from (70/30 (v/v) to 90/10 (v/v)) of ACN/water (0.1% trifluoroacetic acid (TFA)) was used with a flow rate of 1 mL/min at an oven temperature of 35 °C. All solvents have been degassed before use. The injection volume was 20 μL, and the detection wavelength was set at 235 nm, to detect the gold complexes and the amino acids in the chromatogram.

[9] = FCS influence on stability of 7 in RPMI 1640 (protein binding, HPLC); assay type: in vitro ADME; settings: 4 h, 37 °C
Procedure: The complex (conc. 30 μM) dissolved in RPMI 1640 medium supplemented with 10% FCS was incubated for 4 h at 37 °C in the dark. Subsequently, the proteins were precipitated with ACN and the supernatant was dried by lyophilization. The remaining complexes were extracted from the lyophilizate with DCM. The organic layer was evaporated, and the residue was finally dissolved in 1 mL of ACN. This solution was then analyzed by HPLC as described above.
To 11 mL of RPMI 1640 including 10% FCS, 11 μL of a freshly prepared 3 mM DMF solution of 7 was added. The solution was then incubated for 4 h at 37 °C in the dark. Proteins were precipitated with 33 mL of ACN. The mixture was cooled to −30 °C and stored for 2 h at −20 °C. Subsequently, the supernatant was separated by centrifugation (3000 rpm), collected, and dried by lyophilization. The lyophilizate was extracted three times with 5 mL of DCM and finally dried under reduced pressure. The residue was taken up in 1 mL of ACN, and 30 μL was analyzed by the HPLC method described above. Peak area was used for quantification. The calibrations of 5, 7, and 8 were obtained by injecting 30 μL of the respective solution of pure substances in ACN at a concentration of 1–30 μM (R^2 > 0.99).

[10] = HPLC reactivity study with non-thiol containing amino acids in ACN/water; assay type: physicochemical; settings: for formation of 8: t24h, 0.5 mM
Procedure: as §1, §2, §3, §4, §5

[11] = 72 h incubation, mean ± SD of two or three independent experiments, read-out: metabolic activity IC50, A2780
[12] = t0h, ACN/RPMI 1640 50/50, 0.5 mM
[13] = t24h, ACN/RPMI 1640 50/50, 0.5 mM
[14] = t24h, chloride containing ACN/water 50/50, 0.5 mM
[15] = chloride containing ACN/water 50/50, 0.5 mM
[16] = t0h, chloride containing ACN/water 50/50, 0.5 mM

Row | Molecule | IC50 (K562 cells) [µM] | IC50 [1] [µM] | IC50 (MCF-7 cells) [µM] | IC50 (A549 cells) [µM] | IC50 [2] [µM] | IC50 [3] [µM] | IC50 (IGROV1 cells) [µM] | IC50 (A2780 cells; [11]) [µM] | IC50 (IGROV1-CSC cells) [µM] | IC50 [4] [µM] | formation of 8 [5, 12] [%] | formation of 8 [5, 13] [%] | formation of 8 (ligand scrambling / reduction) [6, 14] [%] | other results
1 | CC(=O)OC[C@H]1O[C@@H]([S-])[C@H](OC(C)=O)[C@@H](OC(C)=O)[C@@H]1OC(C)=O.CCP(CC)CC.[Au+] [Auranofin, reference compound] | 3.66 ± 0.27 | 3.75 ± 0.38 | 3.15 ± 0.36 | 4.26 ± 0.45 | 4.42 ± 0.44 | 1.14 ± 0.46 | – | – | – | – | – | – | – | –
2 | N.N.[Cl][Pt][Cl] [Cisplatin, reference compound] | 7.91 ± 0.78 | 9.93 ± 0.77 | 7.18 ± 1.28 | 6.67 ± 0.63 | 6.99 ± 0.57 | 4.13 ± 0.59 | 2.84 ± 0.76 | 6.65 ± 1.42 | 3.76 ± 0.4 | 9.8 ± 0.64 | – | – | – | –
3 | CCn1c(-c2ccccc2)c(-c2ccccc2)n(CC)[c]1=[Au+]([Cl])([Cl])=[c]1n(CC)c(-c2ccccc2)c(-c2ccccc2)n1CC.F[P-](F)(F)(F)(F)F [Complex 9, Bis[1,3-diethyl-4,5-diphenyl-1H-imidazol-2-yliden]dichloridogold(III) Hexafluorophosphate] | 0.55 ± 0.16 | 1.43 ± 0.29 | 0.24 ± 0.05 | 0.18 ± 0.01 | 0.21 ± 0.02 | 0.26 ± 0.05 | 0.7 ± 0.38 | 0.25 ± 0.04 | 1.74 ± 0.19 | 0.05 ± 0.02 | 5.0 | 36.3 | 12.5 | –
4 | CCn1c(-c2ccccc2)c(-c2ccccc2)n(CC)[c]1=[Au+]([Br])([Br])=[c]1n(CC)c(-c2ccccc2)c(-c2ccccc2)n1CC.F[P-](F)(F)(F)(F)F [Complex 10, Bis[1,3-diethyl-4,5-diphenyl-1H-imidazol-2-ylidene]dibromidogold(III) Hexafluorophosphate] | 0.49 ± 0.12 | 1.59 ± 0.3 | 0.22 ± 0.07 | 0.2 ± 0.02 | 0.25 ± 0.04 | 0.29 ± 0.18 | 0.44 ± 0.19 | 0.29 ± 0.05 | 1.29 ± 0.23 | 0.1 ± 0.04 | 9.3 | 71.1 | 5.1 | formation of 9 (Br/Cl exchange) [5, 12]: 42.3%; amount of 9 [5, 13]: 18.2%; remaining amount of the complex itself [5, 13]: 10.7%; formation of 8 [6, 15]: 2.2%; substitution to 9 [6, 16]: 24.0%; substitution to 9 [6, 14]: 54.4%
5 | CCn1c(-c2ccccc2)c(-c2ccccc2)n(CC)[c]1=[Au][S]C[C@H](NC(=O)CC[C@H](N)C(=O)O)C(=O)NCC(=O)O [Complex 12] | – | – | – | – | – | – | – | – | – | – | – | – | – | IC50 relative to 5 (and 6) in A2780 cells, times higher / fold less active (A2780 cells): about 2 fold; IC50 relative to 5 (and 6) in A2780 cells, times higher / fold less active (A2780 cells; listed as (NHC)Au(I)-GSH): 2 fold; IC50 (A2780 cells; preliminary experiment, read-out: cell growth IC50, A2780): 15.9 µM
6 | Bis[1,3-diethyl-4,5-diphenyl-1H-imidazol-2-ylidene]diiodidogold(III) Hexafluorophosphate [Complex 11] | 0.97 ± 0.26 | 2.26 ± 1.08 | 0.19 ± 0.05 | 0.25 ± 0.02 | 0.27 ± 0.04 | 0.2 ± 0.07 | 1.28 ± 0.93 | 0.28 ± 0.06 | 2.45 ± 0.97 | 0.02 ± 0.01 | – | – | – | time to complete conversion to 8 ([5]; ACN/RPMI 1640 50/50, 0.5 mM): ≤ 8 h; substitution to 9 [6, 16]: 0.4%
7 | Bromido[1,3-diethyl-4,5-diphenyl-1H-imidazol-2-ylidene]gold(I) [Complex 6] | > 10 | > 10 | 4.54 ± 0.52 | > 10 | > 10 | 4.64 ± 0.44 | 5.78 ± 0.9 | 9.38 ± 0.8 | 8.78 ± 0.6 | 2.87 ± 0.33 | – | – | – | metabolic activity (remaining) in SV-80 cells ([7]; at 10 μM, mean of three independent experiments): 20%; substitution to (NHC)Au(I)-GSH adduct 12 ([8]; ACN/water 50/50, 0.5 mM): quantitatively; conversion to 5 ([5]; t0h, 0.5 mM): immediately converted; conversion to 5 [6]: quantitatively
8 | Iodido[1,3-diethyl-4,5-diphenyl-1H-imidazol-2-ylidene]gold(I) [Complex 7] | 0.72 ± 0.3 | 1.53 ± 1.04 | 0.48 ± 0.08 | 1.12 ± 0.17 | 1.21 ± 0.36 | 1.63 ± 0.79 | 1.94 ± 0.35 | 1.43 ± 0.4 | 0.47 ± 0.13 | 0.4 ± 0.06 | 0.8 | 23.1 | 18.9 | metabolic activity (remaining) in SV-80 cells ([7]; at 1.5 μM): 77%; start of ligand scrambling ([8]; time-dependent analysis): 1 h; substitution to (NHC)Au(I)-GSH adduct 12 ([8]; ACN/water 50/50, 0.5 mM): 9.7%; formation of 8 ([8]; t24h, ACN/water 50/50, 0.5 mM): 9.8%; proportion of 12 ([8]; t24h, ACN/water 50/50, 0.5 mM): 4.7%; concentration in the free fraction after incubation of 7 ([9]; 7 (30 μM) in RPMI 1640 + 10% FCS, dark, protein precipitation with ACN, from HPLC peak areas): 780 nM; protein-bound fraction ([9]; 7 and its degradation products in RPMI 1640 + 10% FCS): about 50%; ratio of 7/8 ([10]; 20 equiv arginine (Arg), after 30 min, stable until 24 h): 90/10; reaction with amino acids ([10]; 20 equiv non-thiol containing amino acid, ACN/water 50/50): did not react; formation of 8 ([10]; 20 equiv glutamic acid (Glu), ACN/water 50/50): 31.6%; formation of 8 ([10]; 20 equiv methionine (Met), ACN/water 50/50): 27.5%; formation of 8 ([10]; pure ACN/water 50/50): 31.2%; amount of 5 formed ([5]; during 24 h, ACN/RPMI 1640 50/50): remained constant; conversion to 5 ([5]; t0h, 0.5 mM): 14.3%; formation of GSH-adduct 12 [5, 13]: No GSH-adduct 12 could be detected; conversion to 5 [6]: 13.3%; formation of 8 [6, 15]: 3.6%; quantity of 5 formed [6, 14]: stayed constant
